Results as given in article PMC11575396, “Activity and cryo-EM structure of the polymerase domain of the human norovirus ProPol precursor” (Journal of Virology, 2024).
Counter-ions that a name gives are not always drawn. Like-named read-outs stand apart in the source and are kept apart here. Marks after values point to notes of the source that are not given here.

Tests used:
GII Pol [1] = biological target: T1, GII Pol (Norovirus Hu/GII.4/Sydney/NSW0514/2012/AU, UniProt K4L8Z7); experiment: Steady-state kinetics of de novo polymerase activity (PicoGreen); type: biochemical, Human norovirus GII.4 Sydney 2012; details: (95% CI)
Procedure: (§1) De novo polymerase activity was measured by monitoring the formation of dsRNA from a single-stranded homopolymeric RNA template using PicoGreen as described previously ([69]). Optimal pH (range of 7.0–8.0), concentrations of MnCl2 (2.5 mM), and DTT (5 mM) for HuNV were previously established ([17], [52]). Concentrations of NaCl in the final polymerase reaction were maintained below 10 mM ([17]).
(§2) Standard reactions were performed in 25 µL, containing 5 mM DTT, 2.5 mM MnCl2, 20 ng/µL RNA template, 0.5 mM NTP in 20 mM Tris pH 7.5. Reactions were initiated with the indicated concentration of enzyme and allowed to proceed for a set period at 37°C before being terminated with 10 mM EDTA. PicoGreen (1:350 dilution) (Invitrogen, Waltham, MA, USA) was added to bind the dsRNA, and fluorescence was measured on a Varioskan Flash (Thermo Fisher Scientific, Waltham, MA, USA) plate reader with excitation at 480 nm and emission at 520 nm.
(§3) Kinetics of nucleotide incorporation by polymerase proteins was analyzed by titrating NTP concentration under standard reaction conditions for the linear time period of the enzyme. Kinetics of RNA template utilization was analyzed in the same manner but with titration of the homopolymeric template. The velocity of the reaction against substrate concentration was plotted, and the kinetic parameters were determined by non-linear regression using the Michaelis-Menten model in GraphPad Prism version 9.2.0 (La Jolla, CA, USA). All enzyme kinetics was performed with three independent preparations of protein, with triplicate wells for each replicate.

GII ProPol [2] = biological target: T2, GII ProPol (Norovirus Hu/GII.4/Sydney/NSW0514/2012/AU, UniProt K4L8Z7, E1189A); experiment: as above; type: biochemical, Human norovirus GII.4 Sydney 2012
GII ProPol [3] = biological target: T2, GII ProPol; experiment: as above; type: biochemical, Human norovirus GII.4 Sydney 2012; details: (95% CI)
Procedure: as §1, §2, §3

GI Pol [4] = biological target: T3, GI Pol (Southampton virus, UniProt Q04544); experiment: as above; type: biochemical, Human norovirus GI Southampton; details: GI Pol 75 nM, (95% CI)
Procedure: as §1, §2, §3

GI ProPol [5] = biological target: T4, GI ProPol (Southampton virus, UniProt Q04544, E1280A); experiment: as above; type: biochemical, Human norovirus GI Southampton; details: GI ProPol 250 nM, (95% CI)
Procedure: as §1, §2, §3

GII ProPol [6] = biological target: T2, GII ProPol; experiment: biochemical; parameters: species or system Human norovirus GII.4 Sydney 2012
GII ProPol [7] = biological target: T2, GII ProPol; experiment: FRET protease assay; type: biochemical, Human norovirus GII.4 Sydney 2012
Excerpt: (§4) A fluorescent resonance energy transfer assay was used to measure the activities of Pro and ProPol as described in reference ([46]). The peptide substrate, 5(6)-carboxyfluorescein (FAM)-[…]-Dabcyl utilized in reactions, was based on the NS1-2/NS3 cleavage site of HuNV GII.4 Sydney 2012, and the scissile bond is shown in bold.

GII Pro = experiment: FRET protease assay; type: biochemical, Human norovirus GII.4 Sydney 2012; details: normalized to 0-µM inhibitor control
Excerpt: as §4

GII Pol [8] = biological target: T1, GII Pol; experiment: biochemical; details: for IC50: read-out: IC50 polymerase activity
norovirus Pro = system: norovirus Pro; parameters: method as in PMID 32321856, PMID 38005879; details: read-out: IC50 protease activity; cited from earlier work
GI Pol [9] = biological target: T3, GI Pol; experiment: De novo polymerase inhibition assay (PicoGreen dsRNA formation); type: biochemical
GII Pol [10] = system: GII Pol; parameters: method as in PMID 24316032, PMID 31804593, PMID 30584800; details: read-out: IC50 polymerase; cited from earlier work
GI ProPol [11] = biological target: T4, GI ProPol; experiment: De novo polymerase inhibition assay (PicoGreen dsRNA formation); type: biochemical, Human norovirus GI Southampton
[12] = GII ProPol 1 µM, ATP 0 to 2000 µM, 80 ng/µL poly(U), (95% CI)
[13] = GTP 0 to 1,000 µM, 20 ng/µL poly(C)
[14] = 0, 3 and 30 µM, poly(C) template
[15] = GII ProPol 2 µM, poly(A) 0 to 400 ng/µL, 0.5 mM UTP, 60 min
[16] = GII ProPol 35 nM, poly(C) 0 to 80 ng/µL, 0.5 mM GTP
[17] = GII Pol 35 nM, poly(C) 0 to 80 ng/µL, 0.5 mM GTP
[18] = poly(C) 0 to 80 ng/µL, 0.5 mM GTP
[19] = GII Pol 2 µM, poly(U) 0 to 160 ng/µL, 0.5 mM ATP, 20 min

Nc1ncnc2c1ncn2[C@@H]1O[C@H](COP(=O)(O)OP(=O)(O)OP(=O)(O)O)[C@@H](O)[C@H]1O [ATP]
kcat ATP (GII Pol [1]; GII Pol 2 µM, ATP 0 to 2000 µM, 80 ng/µL poly(U)): 0.3 (0.2–0.33) s^−1
Km (GII Pol [1]; GII Pol 2 µM, ATP 0 to 2000 µM, 80 ng/µL poly(U), read-out: Km ATP): 416 µM
Km (GII ProPol [2]; [12]): 484 µM
kcat ATP (GII ProPol [2]; [12]): 0.6 (0.5–0.7) s^−1

Nc1nc2c(ncn2[C@@H]2O[C@H](COP(=O)(O)OP(=O)(O)OP(=O)(O)O)[C@@H](O)[C@H]2O)c(=O)[nH]1 [GTP]
kcat GTP (GII ProPol [3]; GII ProPol 35 nM, GTP 0 to 500 µM, 20 ng/µL poly(C)): 0.78 (0.69–0.87) s^−1
Km (GII ProPol [3]; GII ProPol 35 nM, GTP 0 to 500 µM, 20 ng/µL poly(C), read-out: Km GTP): 25.3 µM
kcat GTP (GII Pol [1]; GII Pol 35 nM, GTP 0 to 500 µM, 20 ng/µL poly(C)): 1.6 (1.40–1.96) s^−1
Km (GII Pol [1]; GII Pol 35 nM, GTP 0 to 500 µM, 20 ng/µL poly(C), read-out: Km GTP): 80.3 µM
Km (GI Pol [4]; [13]): 150 µM
kcat GTP (GI Pol [4]; [13]): 1.7 (1.47–1.96) s^−1
Km (GI ProPol [5]; [13]): 91.5 µM
kcat GTP (GI ProPol [5]; [13]): 0.24 s⁻¹

Nc1ncnc2c([C@@H]3N[C@H](COP(=O)(O)OP(=O)(O)OP(=O)(O)O)[C@@H](O)[C@H]3O)c[nH]c12 [Gal-TP, galidesivir triphosphate]
IC50 (GII ProPol [6]): 247 µM
fold difference between the IC50 values (GII ProPol vs GII Pol) (GII ProPol [6]; poly(U) template): 1.6 fold
protease activity in the presence of inhibitor (GII ProPol [7]; 30 µM inhibitor): observable decrease in ProPol activity
protease activity in the presence of inhibitor (GII ProPol [7]; normalized to 0-µM inhibitor control): did not affect protease activity to a level of significance
protease activity in the presence of inhibitor (GII Pro): did not affect protease activity to a level of significance
IC50 (GII Pol [8]; GII Pol 2 µM, 8 ng/µL poly(U) template, 400 µM ATP): 154 µM

O=C(Nc1cccc(C(=O)Nc2ccc(S(=O)(=O)O)c3cc(S(=O)(=O)O)cc(S(=O)(=O)O)c23)c1)Nc1cccc(C(=O)Nc2ccc(S(=O)(=O)O)c3cc(S(=O)(=O)O)cc(S(=O)(=O)O)c23)c1 [NF023, 8,8′-[carbonylbis(imino-3,1-phenylenecarbonylimino)]bis-1,3,5-naphthalene-trisulphonic acid]
protease activity in the presence of inhibitor (GII Pro): not affected

O=C[C@H](C[C@@H]1CCNC1=O)NC(=O)[C@H](CC1CCCCC1)NC(=O)c1cc2ccccc2[nH]1 [NV-004]
IC50 (norovirus Pro): 0.37 µM
remaining activity at 30 µM (GII ProPol [6]; read-out: polymerase activity compared with 0-µM control): 76%
polymerase activity in the presence of inhibitor (GII Pol [8]; [14]): no decrease in polymerase activity
polymerase activity in the presence of inhibitor (GI Pol [9]; [14]): no decrease in polymerase activity

Cc1nc(/N=N/c2cc(S(=O)(=O)O)c3cc([N+](=O)[O-])cc(S(=O)(=O)O)c3c2)c(COP(=O)(O)O)c(C=O)c1O [PPNDS, pyridoxal‐5′‐phosphate‐6‐(2′‐naphthylazo‐6′‐nitro‐4′,8′‐disulfonate) tetrasodium salt]
IC50 (GII ProPol [6]): 3.8 µM
IC50 (GII Pol [8]): 0.5 µM
IC50 (GII Pol [10]): 0.45 to 1.5 µM
IC50 (GI Pol [9]; GI Pol 75 nM, 6 ng/µL poly(C) template, 150 µM GTP): 3.4 µM
IC50 (GI ProPol [11]): 6.8 µM

O=c1ccn([C@@H]2O[C@H](COP(=O)(O)OP(=O)(O)OP(=O)(O)O)[C@@H](O)[C@H]2O)c(=O)[nH]1 [UTP]
kcat UTP (GII ProPol [3]; GII ProPol 2 µM, nucleotide 0 to 2000 µM, 20 ng/µL poly(A), 60 min): 0.36 (0.32–0.41) s^−1
Km (GII ProPol [3]; GII ProPol 2 µM, nucleotide 0 to 2000 µM, 20 ng/µL poly(A), 60 min, read-out: Km UTP): 438 µM

poly(A)
Km poly(A) (GII ProPol [3]; [15]): 23.6 (19.0–29.3)^a ng/μL
kcat poly(A) (GII ProPol [3]; [15]): 0.42 (0.39–0.45) s^−1

poly(C)
Km poly(C) (GII ProPol [3]; [16]): 5.9 (4.7–7.3) ng/μL
kcat poly(C) (GII ProPol [3]; [16]): 1.1 (1.0–1.2) s^−1
Km poly(C) (GII Pol [1]; [17]): 8.8 (6.9–11.3) ng/μL
kcat poly(C) (GII Pol [1]; [17]): 1.4 (1.3–1.5) s^−1
Km poly(C) (GI Pol [4]; [18]): 6.5 (5.2–8.0) ng/μL
kcat poly(C) (GI Pol [4]; [18]): 1.4 (1.3–1.6) s^−1
Km poly(C) (GI ProPol [5]; poly(C) 0 to 80 ng/µL, 0.5 mM GTP, 10 min 37°C): 15.6 (12.0–20.2)^a ng/μL
kcat poly(C) (GI ProPol [5]; [18]): 0.4 (0.35–0.42) s^−1

poly(U)
kcat poly(U) (GII ProPol [3]; GII ProPol 1 µM, poly(U) 0 to 160 ng/µL, 0.5 mM ATP, 20 min): 1.9 (1.6–2.2) s^−1
Km poly(U) (GII ProPol [3]; GII ProPol 1 µM, poly(U) 0 to 160 ng/µL, 0.5 mM ATP, 20 min, Michaelis-Menten): 7.9 (4.7–13.2)^a ng/μL
Km poly(U) (GII Pol [1]; [19]): 29.6 (19.7–45.0) ng/μL
kcat poly(U) (GII Pol [1]; [19]): 1.4 (1.2–1.7) s^−1
Km as estimated by half Vmax (GII ProPol [2]; GII ProPol with poly(U), allosteric sigmoidal model): 6.8 ng/µL
